ChEMBL document CHEMBL3507680, “University of Dundee, Gates Library screen for HepG2 cell viability”

Experiment: Human HepG2 cell viability assay in 384 well format
Assay type: toxicity, cell-based
Design: dose 125 nL, time 70.5 hour; concentration not given beside the values
Conditions: HepG2 cells, read-out: Inhibition

Row | Compound | cytotoxicity at 70.5 h [%]
1 | Cc1nccn1CCC(=O)N1CCC2(CCC(=O)N(CC3CC3)C2)CC1 | 2.21
2 | CNC(=O)C1(N(C)CCc2ccccc2)Cc2ccccc2C1 | -1.19
3 | CCCN1CCN(Cc2cccc(OC)c2)[C@H]2CS(=O)(=O)C[C@H]21 | 25.9
4 | NCC1Cc2cccc(-c3nccc(N4CCC(O)CC4)n3)c2O1 (stereo unspecified) | 7.11
5 | Cc1nn2c(N3CCS(=O)(=O)CC3)cc(-c3ccccc3)nc2c1C | 1.53
6 | CC1CCN(CC(=O)N(Cc2ccccc2)Cc2nccs2)C1=O (stereo unspecified) | -11.6
7 | Cc1ccc(C(=O)N2CCCC3(C2)C(=O)N(C)c2ccccc23)c(=O)[nH]1 (stereo unspecified) | -10.2
8 | CC(C)=CCN1C[C@H]2CC[C@@H]1CN(C(=O)c1ccc3c(c1)OCO3)C2 | 1.98
9 | CCC(CO)N(Cc1ccco1)C(=O)c1cccc(C)c1O (stereo unspecified) | -0.632
10 | COc1ccc(-c2ccncc2)cc1CNC1CCCC1 | -4.27
11 | Cc1nc2c(c(N3CCC(CCn4cccn4)CC3)n1)CCNCC2 | -2.46
12 | COc1nccnc1N1CCC2(CCCN(C(C)C)C2=O)C1 (stereo unspecified) | -4.89
13 | CCN(Cc1noc(C)n1)C(=O)CCc1scnc1C | 3.89
14 | Cc1ccc2oc(=O)n(CCC(=O)N3CCN(C)C(=O)C3)c2c1 | -3.44
15 | O=C(NCCc1cccnc1)c1ccc2nccn2c1 | -16.8
16 | Cn1ccnc1CN1CCCC(CCc2ccc(F)c(F)c2)C1 (stereo unspecified) | -1.61
17 | CCc1ncc2c(n1)CN(C(=O)Cc1cc(OC)cc(OC)c1)C2 | -14
18 | Cc1nc2c(c(N[C@H](C(N)=O)C(C)C)n1)Cc1ccccc1OC2 | -11.2
19 | COc1ccc(Cl)cc1-n1c(COC(C)C)n[nH]c1=O | -9.9

Row | Compound | cytotoxicity at 70.5 h [%]
20 | CCc1nc(C)c(CC(=O)N2CCC3(CC2)OCCCC3OC)c(=O)[nH]1 (stereo unspecified) | -6.31
21 | CC(C)N1CCCC(C(=O)NCCCc2cnn(C)c2)C1 (stereo unspecified) | 17.4
22 | CCc1cc(NC(C)(C)C)nc(N2CCOCC2)n1 | -12
23 | COc1ccc2c(c1)C(C(=O)NCCCN1CCN(C)CC1)CC(=O)N2 (stereo unspecified) | -25
24 | Cc1ccnc(CC(C)N(C)Cc2ccc3c(c2)CCO3)c1 (stereo unspecified) | -5.48
25 | COc1cc(N2CCC(c3nccn3CCCN(C)C)CC2)nc(N)n1 | -1.61
26 | O=C(NCC1=CCCCC1)C(c1cccnc1)N1CCOCC1 (stereo unspecified) | -1.14
27 | OC1CCN(C2CCN(Cc3cnc(-c4cccs4)nc3)CC2)CC1 | 12.5
28 | CCc1ncc(C(=O)NCCn2c(C)cc(C)nc2=O)cn1 | -1.56
29 | CCc1cccc(OC2CN(C(=O)[C@@H](N)[C@@H](C)O)C2)c1 | -8.46
30 | Cc1ccnc(N2CCN(Cc3ccccc3)CC(O)C2)c1 (stereo unspecified) | -3.12
31 | Cc1ccc(C(=O)N2[C@@H]3CC[C@H]2CN(C)C(=O)C3)c(=O)[nH]1 | -8.22
32 | CCN1CCc2[nH]cnc2C12CCN(Cc1ccc3nsnc3c1)CC2 | -5.41
33 | Cc1cc2ccccc2n1CCC(=O)N1CCCC1Cn1cccn1 (stereo unspecified) | -9.07
34 | CCCc1nc(C)cc(N2Cc3cnn(CCO)c3C2)n1 | 0.818
35 | COCCC1(C(=O)O)CCCN(Cc2ccccc2OCCO)C1 (stereo unspecified) | -8.44
36 | O=C(CCc1cn[nH]c1)N1C[C@H](CO)C[C@H](CN2CCOCC2)C1 | -8.81
37 | CCCc1nnc(N2CCN(c3ccccc3Cl)CC2)o1 | -0.178
38 | Cc1ccc(C2(O)CCN(C(=O)Cn3cc(C)c(=O)[nH]c3=O)CC2)nc1 | -7.28

Row | Compound | cytotoxicity at 70.5 h [%]
39 | CN(Cc1ccccc1)c1ncccc1CNC1CN2CCC1CC2 (stereo unspecified) | -6.82
40 | O=C(C1CCS(=O)(=O)CC1)N1C[C@H]2CC[C@@H]1CN(Cc1ccccc1)C2 | 10.4
41 | CSCC(=O)N1CCC(c2nccn2Cc2cscn2)CC1 | -2.59
42 | CC[C@@H](c1ccccc1)n1c(CN)n[nH]c1=O | -13.5
43 | COCCc1noc(-c2ccc(N[C@H]3CCCCNC3=O)nc2)n1 | 1.36
44 | NC(=O)N1CCCC(C(=O)NCc2noc(Cc3ccccc3)n2)C1 (stereo unspecified) | -12.7
45 | CCc1ncc(C(=O)N2CCN(Cc3ncccc3C)CC2)cn1 | -14.7
46 | C[C@@H]1CN(CC(C)(C)N2CCCCC2)CC[C@@]1(O)C1CC1 | -5.05
47 | O=c1cc(N2CCNCC2)cnn1CCCn1cccn1 | -9.24
48 | CN1N=C(C(=O)N2CCCC(CCc3ccccc3F)C2)CCC1=O (stereo unspecified) | -5.83
49 | O=C(c1ccsc1)N1CCc2c(nc(-c3ccncc3)[nH]c2=O)C1 | -6.38
50 | Cc1nc(N(C)C2CCCCC2)ncc1C(C)NC(=O)c1cccnc1 (stereo unspecified) | -5.07
51 | CC(CCc1ccc(O)cc1)NC1CCN(S(C)(=O)=O)CC1 (stereo unspecified) | -4.22
52 | Cc1nc(N)ccc1CC1COc2ccccc2C1 (stereo unspecified) | 15
53 | COCCC1(CO)CCCN(C(=O)c2cc(Cl)ccc2F)C1 (stereo unspecified) | -11
54 | O=C1CC(c2ncc(-c3ccc4c(c3)OCCO4)[nH]2)CN1C1CCCC1 (stereo unspecified) | -4.48
55 | COCCN(C)C[C@H]1C[C@H](CO)CN(C(=O)c2ccc(=O)n(C)c2)C1 | -3.23
56 | N[C@@H]1c2ccccc2C2(CCN(c3cccc(C(F)(F)F)n3)CC2)[C@H]1O | 5.4
